Numbers after ± are expanded uncertainties.
Conditions: 283.14 K, Liquid, Vibrating tube method

CCCCCCC(=O)OCC(COC(=O)CCCCCC)(COC(=O)CCCCCC)COC(=O)CCCCCC [pentaerythritol tetraheptanoate]
Conditions	mass density [kg/m3]
13797 kPa	993.7 ± 1.2
13815 kPa	993.7 ± 1.2
13832 kPa	993.7 ± 1.2
13850 kPa	993.7 ± 1.2
13872 kPa	993.7 ± 1.2
13889 kPa	993.7 ± 1.2
13907 kPa	993.7 ± 1.2
13928 kPa	993.7 ± 1.2
13946 kPa	993.7 ± 1.2
13964 kPa	993.7 ± 1.2
13985 kPa	993.7 ± 1.2
14003 kPa	993.7 ± 1.2
14021 kPa	993.7 ± 1.2
14043 kPa	993.7 ± 1.2
14061 kPa	993.8 ± 1.2
14079 kPa	993.9 ± 1.2
14098 kPa	993.8 ± 1.2
14120 kPa	993.8 ± 1.2
14138 kPa	993.9 ± 1.2
14160 kPa	993.9 ± 1.2
14178 kPa	993.9 ± 1.2
14197 kPa	993.9 ± 1.2
14216 kPa	993.8 ± 1.2
14238 kPa	993.9 ± 1.2
14256 kPa	993.9 ± 1.2
14278 kPa	993.9 ± 1.2
14297 kPa	993.9 ± 1.2
14316 kPa	993.9 ± 1.2
14339 kPa	994 ± 1.2
14358 kPa	994 ± 1.2
14377 kPa	993.9 ± 1.2
14396 kPa	993.9 ± 1.2
14419 kPa	993.9 ± 1.2
14438 kPa	994 ± 1.2
14458 kPa	994 ± 1.2
14480 kPa	994 ± 1.2
14500 kPa	994 ± 1.2
14523 kPa	994 ± 1.2
14542 kPa	994.1 ± 1.2
14561 kPa	994 ± 1.2
14585 kPa	994.1 ± 1.2
14605 kPa	994.1 ± 1.2
14625 kPa	994.1 ± 1.2
14645 kPa	994 ± 1.2
14668 kPa	994.1 ± 1.2
14688 kPa	994.1 ± 1.2
14708 kPa	994.1 ± 1.2
14733 kPa	994.2 ± 1.2
14752 kPa	994.2 ± 1.2
14772 kPa	994.3 ± 1.2
14797 kPa	994 ± 1.2
14817 kPa	994.3 ± 1.2
14838 kPa	994.2 ± 1.2
14863 kPa	994.2 ± 1.2
14884 kPa	994.2 ± 1.2
14905 kPa	994.2 ± 1.2
14926 kPa	994.3 ± 1.2
14946 kPa	994.2 ± 1.2
14971 kPa	994.3 ± 1.2
14991 kPa	994.2 ± 1.2
15016 kPa	994.3 ± 1.2
15037 kPa	994.2 ± 1.2
15057 kPa	994.4 ± 1.2
15083 kPa	994.4 ± 1.2
15104 kPa	994.4 ± 1.2
15125 kPa	994.4 ± 1.2
15151 kPa	994.5 ± 1.2
15173 kPa	994.4 ± 1.2
15194 kPa	994.3 ± 1.2
15216 kPa	994.4 ± 1.2
15242 kPa	994.5 ± 1.2
15263 kPa	994.4 ± 1.2
15285 kPa	994.5 ± 1.2
15310 kPa	994.4 ± 1.2
15332 kPa	994.4 ± 1.2
15354 kPa	994.5 ± 1.2
15567 kPa	994.5 ± 1.2
15589 kPa	994.5 ± 1.2
15616 kPa	994.6 ± 1.2
15638 kPa	994.6 ± 1.2
15661 kPa	994.7 ± 1.2
15689 kPa	994.7 ± 1.2
15711 kPa	994.7 ± 1.2
15734 kPa	994.7 ± 1.2
15762 kPa	994.7 ± 1.2
15785 kPa	994.6 ± 1.2
15808 kPa	994.8 ± 1.2
15836 kPa	994.7 ± 1.2
15860 kPa	994.8 ± 1.2
15883 kPa	994.8 ± 1.2
15911 kPa	994.9 ± 1.2
15934 kPa	994.7 ± 1.2
15958 kPa	994.8 ± 1.2
15982 kPa	994.8 ± 1.2
16010 kPa	994.9 ± 1.2
16034 kPa	994.8 ± 1.2
16062 kPa	995 ± 1.2
16087 kPa	995 ± 1.2
16111 kPa	994.9 ± 1.2
16139 kPa	994.9 ± 1.2
16164 kPa	994.9 ± 1.2
16188 kPa	994.8 ± 1.2
16212 kPa	994.9 ± 1.2
16242 kPa	994.9 ± 1.2
16266 kPa	995.1 ± 1.2
16291 kPa	994.9 ± 1.2
16321 kPa	994.9 ± 1.2
16345 kPa	995 ± 1.2
16375 kPa	995 ± 1.2
16400 kPa	995 ± 1.2
16425 kPa	995.1 ± 1.2
16450 kPa	995.1 ± 1.2
16481 kPa	995 ± 1.2
16506 kPa	995.1 ± 1.2
16531 kPa	995.1 ± 1.2
16587 kPa	995.1 ± 1.2
16617 kPa	995.2 ± 1.2
16669 kPa	995.1 ± 1.2
16725 kPa	995.2 ± 1.2
16752 kPa	995.2 ± 1.2
16779 kPa	995.3 ± 1.2
16810 kPa	995.3 ± 1.2
16836 kPa	995.2 ± 1.2
16868 kPa	995.2 ± 1.2
16894 kPa	995.4 ± 1.2
16921 kPa	995.3 ± 1.2
16953 kPa	995.3 ± 1.2
16980 kPa	995.4 ± 1.2
17007 kPa	995.4 ± 1.2
17035 kPa	995.4 ± 1.2
17068 kPa	995.4 ± 1.2
17095 kPa	995.5 ± 1.2
17124 kPa	995.4 ± 1.2
17152 kPa	995.4 ± 1.2
17180 kPa	995.5 ± 1.2
17214 kPa	995.3 ± 1.2
17241 kPa	995.5 ± 1.2
17269 kPa	995.5 ± 1.2
17363 kPa	995.5 ± 1.2
17449 kPa	995.6 ± 1.2
17484 kPa	995.7 ± 1.2
17513 kPa	995.5 ± 1.2
17543 kPa	995.7 ± 1.2
17572 kPa	995.6 ± 1.2
17607 kPa	995.7 ± 1.2
17636 kPa	995.8 ± 1.2
17666 kPa	995.6 ± 1.2
17700 kPa	995.7 ± 1.2
17729 kPa	995.8 ± 1.2
17759 kPa	995.8 ± 1.2
17794 kPa	995.8 ± 1.2
17824 kPa	995.7 ± 1.2
17854 kPa	995.8 ± 1.2
17890 kPa	995.9 ± 1.2
17920 kPa	995.8 ± 1.2
17950 kPa	995.9 ± 1.2
17986 kPa	995.8 ± 1.2
18017 kPa	995.9 ± 1.2
18048 kPa	996 ± 1.2
18085 kPa	995.9 ± 1.2
18116 kPa	995.9 ± 1.2
18147 kPa	995.9 ± 1.2
18184 kPa	995.9 ± 1.2
18215 kPa	996 ± 1.2
18247 kPa	996 ± 1.2
18278 kPa	996 ± 1.2
18316 kPa	995.9 ± 1.2
18348 kPa	996 ± 1.2
18380 kPa	996.1 ± 1.2
18419 kPa	996.1 ± 1.2
18450 kPa	996.2 ± 1.2
18489 kPa	996.2 ± 1.2
18522 kPa	996.1 ± 1.2
18554 kPa	996.1 ± 1.2
18586 kPa	996.1 ± 1.2
18625 kPa	996.3 ± 1.2
18658 kPa	996.3 ± 1.2
18697 kPa	996.3 ± 1.2
18731 kPa	996.2 ± 1.2
18764 kPa	996.3 ± 1.2
18805 kPa	996.3 ± 1.2
18839 kPa	996.3 ± 1.2
18873 kPa	996.3 ± 1.2
18908 kPa	996.4 ± 1.2
18950 kPa	996.4 ± 1.2
18986 kPa	996.4 ± 1.2
19030 kPa	996.4 ± 1.2
19067 kPa	996.3 ± 1.2
19105 kPa	996.5 ± 1.2
19144 kPa	996.5 ± 1.2
19165 kPa	996.5 ± 1.2
19176 kPa	996.5 ± 1.2
19199 kPa	996.5 ± 1.2
19220 kPa	996.4 ± 1.2
19241 kPa	996.6 ± 1.2
19262 kPa	996.5 ± 1.2
19288 kPa	996.7 ± 1.2
19308 kPa	996.5 ± 1.2
19333 kPa	996.6 ± 1.2
19354 kPa	996.5 ± 1.2
19376 kPa	996.7 ± 1.2
19396 kPa	996.7 ± 1.2
19422 kPa	996.6 ± 1.2
19443 kPa	996.8 ± 1.2
19465 kPa	996.7 ± 1.2
19491 kPa	996.7 ± 1.2
19512 kPa	996.7 ± 1.2
19538 kPa	996.8 ± 1.2
19560 kPa	996.7 ± 1.2
19582 kPa	996.6 ± 1.2
19604 kPa	996.8 ± 1.2
19630 kPa	996.7 ± 1.2
19652 kPa	996.7 ± 1.2
19675 kPa	996.7 ± 1.2
19697 kPa	996.7 ± 1.2
19746 kPa	996.8 ± 1.2
19769 kPa	996.8 ± 1.2
19796 kPa	996.9 ± 1.2
19818 kPa	996.8 ± 1.2
19841 kPa	996.8 ± 1.2
19863 kPa	996.9 ± 1.2
19890 kPa	996.9 ± 1.2
19912 kPa	996.9 ± 1.2

— the NIST ThermoML archive (doi:10.1021/je060271a)
